“And” between values parts separate entries of the source, which are not always exact repeats. Equal entries are not always repeated. Toxic doses and inconclusive results are not listed.
Tested on: L1210 leukemia ip in BDF1 mice, survival T/C
Test: NCI In Vivo Anticancer Drug Screen. Data for tumor model L1210 Leukemia (intraperitoneal) in B6D2F1 (BDF1) mice
Settings: endpoint: mean survival time, higher = longer survival
Outline: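 Mice bearing the transplanted tumor received compound or vehicle. Survival of the treated group was divided by that of the vehicle-treated control group to give the ratio.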

[1] = dose: 50.0 mg/kg/injection, schedule: Q01DX009 (ip), vehicle: saline with Tween-80
[2] = dose: 100.0 mg/kg/injection, schedule: Q01DX009 (ip), vehicle: saline with Tween-80
[3] = dose: 100.0 mg/kg/injection, schedule: Q04DX003 (ip), vehicle: saline
[4] = dose: 100.0 mg/kg/injection, schedule: Q01DX001 (ip), vehicle: Klucel (hydroxypropylcellulose) (HPC)
[5] = dose: 100.0 mg/kg/injection, schedule: Q01DX009 (ip), vehicle: Klucel (hydroxypropylcellulose) (HPC)
[6] = dose: 100.0 mg/kg/injection, schedule: Q04DX002 (ip), vehicle: Klucel (hydroxypropylcellulose) (HPC)
[7] = dose: 200.0 mg/kg/injection, schedule: Q01DX009 (ip), vehicle: Klucel (hydroxypropylcellulose) (HPC)
[8] = dose: 200.0 mg/kg/injection, schedule: Q01DX009 (ip), vehicle: saline with Tween-80
[9] = dose: 200.0 mg/kg/injection, schedule: Q04DX002 (ip), vehicle: Klucel (hydroxypropylcellulose) (HPC)
[10] = dose: 400.0 mg/kg/injection, schedule: Q01DX009 (ip), vehicle: Klucel (hydroxypropylcellulose) (HPC)
[11] = dose: 400.0 mg/kg/injection, schedule: Q04DX002 (ip), vehicle: Klucel (hydroxypropylcellulose) (HPC)
[12] = dose: 100.0 mg/kg/injection, schedule: Q04DX003 (ip), vehicle: Klucel (hydroxypropylcellulose) (HPC)
[13] = dose: 200.0 mg/kg/injection, schedule: Q01DX001 (ip), vehicle: Klucel (hydroxypropylcellulose) (HPC)
[14] = dose: 200.0 mg/kg/injection, schedule: Q04DX003 (ip), vehicle: Klucel (hydroxypropylcellulose) (HPC)
[15] = dose: 400.0 mg/kg/injection, schedule: Q01DX001 (ip), vehicle: Klucel (hydroxypropylcellulose) (HPC)
[16] = dose: 400.0 mg/kg/injection, schedule: Q04DX003 (ip), vehicle: Klucel (hydroxypropylcellulose) (HPC)
[17] = dose: 100.0 mg/kg/injection, schedule: Q01DX001 (ip), vehicle: carboxymethylcellulose (CMC)
[18] = dose: 200.0 mg/kg/injection, schedule: Q01DX001 (ip), vehicle: carboxymethylcellulose (CMC)
[19] = dose: 400.0 mg/kg/injection, schedule: Q01DX001 (ip), vehicle: carboxymethylcellulose (CMC)

NC(N)=NN=C1CCCCC1
T/C (dose: 15.0 mg/kg/injection, schedule: Q01DX Z (ip), vehicle: saline): 92 % of control
T/C (dose: 30.0 mg/kg/injection, schedule: Q01DX Z (ip), vehicle: saline): 92 % of control
T/C (dose: 60.0 mg/kg/injection, schedule: Q01DX Z (ip), vehicle: saline): 102 % of control
T/C (dose: 60.0 mg/kg/injection, schedule: Q01DX Z (oral), vehicle: saline): 105 % of control
T/C (dose: 120.0 mg/kg/injection, schedule: Q01DX Z (ip), vehicle: saline): 97 % of control
T/C (dose: 120.0 mg/kg/injection, schedule: Q01DX Z (oral), vehicle: saline): 108 % of control
T/C (dose: 240.0 mg/kg/injection, schedule: Q01DX Z (oral), vehicle: saline): 100 % of control
T/C (dose: 480.0 mg/kg/injection, schedule: Q01DX Z (oral), vehicle: saline): 103 % of control

COc1ccc(OC)c(CCN)c1
T/C (dose: 25.0 mg/kg/injection, schedule: Q01DX009 (ip), vehicle: saline with Tween-80): 98 % of control
T/C [1]: 105 % of control
T/C [2]: 104 % of control
T/C [3]: 107 % of control

Nc1cccc[n+]1CC1(c2ccccc2)OCCO1
T/C (dose: 50.0 mg/kg/injection, schedule: Q01DX001 (ip), vehicle: Klucel (hydroxypropylcellulose) (HPC)): 110 % of control
T/C [4]: 106 % of control

Nc1nc(N)nc(-c2ccccc2)n1
T/C [1]: 94 % of control
T/C [5]: 111 % of control
T/C [2]: 94 % of control
T/C [6]: 114 % of control
T/C [7]: 111 % of control
T/C [8]: 97 % of control
T/C [9]: 107 % of control
T/C [10]: 93 % of control
T/C [11]: 88 % of control

Cc1cccc(OC(=O)Nc2cccc(Cl)c2)c1C
T/C [4]: 94 % of control
T/C [5]: 94 % of control and 100 % of control
T/C [6]: 102 % of control and 105 % of control
T/C [12]: 101 % of control
T/C [13]: 92 % of control
T/C [7]: 98 % of control and 100 % of control
T/C [9]: 96 % of control and 98 % of control
T/C [14]: 97 % of control
T/C [15]: 92 % of control
T/C [10]: 94 % of control and 96 % of control
T/C [11]: 107 % of control and 109 % of control
T/C [16]: 93 % of control

C[S+](C)Cc1ccccc1
T/C (dose: 50.0 mg/kg/injection, schedule: Q04DX003 (ip), vehicle: saline): 96 % of control
T/C (dose: 100.0 mg/kg/injection, schedule: Q01DX009 (ip), vehicle: other): 93 % of control
T/C [3]: 100 % of control

CCCCC(=O)N/N=C\c1cccc2ccccc12
T/C [17]: 86 % of control
T/C [18]: 88 % of control
T/C [19]: 96 % of control

O=C(O)C(O)C(=O)O.[NH2-].[NH2-].[Pt+2]
T/C (dose: 1.0 mg/kg/injection, schedule: Q01DX001 (ip), vehicle: other): 94 % of control
T/C (dose: 2.0 mg/kg/injection, schedule: Q01DX001 (ip), vehicle: other): 95 % of control
T/C (dose: 2.0 mg/kg/injection, schedule: Q01DX009 (ip), vehicle: other): 101 % of control
T/C (dose: 4.0 mg/kg/injection, schedule: Q01DX001 (ip), vehicle: other): 98 % of control
T/C (dose: 4.0 mg/kg/injection, schedule: Q01DX009 (ip), vehicle: other): 101 % of control
T/C (dose: 8.0 mg/kg/injection, schedule: Q01DX001 (ip), vehicle: other): 98 % of control
T/C (dose: 8.0 mg/kg/injection, schedule: Q01DX009 (ip), vehicle: other): 101 % of control
T/C (dose: 16.0 mg/kg/injection, schedule: Q01DX001 (ip), vehicle: other): 101 % of control
T/C (dose: 25.0 mg/kg/injection, schedule: Q04DX003 (ip), vehicle: saline): 112 % of control
T/C (dose: 32.0 mg/kg/injection, schedule: Q01DX001 (ip), vehicle: other): 109 % of control
T/C (dose: 32.0 mg/kg/injection, schedule: Q01DX009 (ip), vehicle: other): 187 % of control
T/C (dose: 40.0 mg/kg/injection, schedule: Q01DX001 (ip), vehicle: other): 122 % of control
T/C (dose: 60.0 mg/kg/injection, schedule: Q01DX001 (ip), vehicle: other): 158 % of control
T/C (dose: 80.0 mg/kg/injection, schedule: Q01DX001 (ip), vehicle: other): 168 % of control
T/C (dose: 100.0 mg/kg/injection, schedule: Q01DX001 (ip), vehicle: other): 114 % of control
T/C (dose: 128.0 mg/kg/injection, schedule: Q01DX001 (ip), vehicle: other): 121 % of control

C[N+]1(C)C2CC(=O)CC1C1CC12 (stereo unspecified) (tested in a mixture with another compound)
T/C (dose: 50.0 mg/kg/injection, schedule: Q01DX009 (ip), vehicle: saline): 106 % of control
T/C (dose: 100.0 mg/kg/injection, schedule: Q01DX009 (ip), vehicle: saline): 108 % of control
T/C [3]: 94 % of control
T/C (dose: 200.0 mg/kg/injection, schedule: Q01DX009 (ip), vehicle: saline): 90 % of control
T/C (dose: 200.0 mg/kg/injection, schedule: Q04DX003 (ip), vehicle: saline): 100 % of control

CCCC1(CN2c3ccccc3Sc3ccc(Cl)cc32)CCN(CC)C1 (stereo unspecified)
T/C [3]: 90 % of control

S=C(c1ccccc1)N(c1ccccc1)c1ccc2ccccc2c1
T/C [12]: 98 % of control
T/C [14]: 95 % of control
T/C [16]: 94 % of control

CCC1(c2ccccc2)NC(=O)NC1=O (stereo unspecified)
T/C [2]: 102 % of control
T/C [8]: 100 % of control

CCOC(=O)C(=CNc1cccc(N)n1)C(=O)OCC
T/C [12]: 95 % of control
T/C [14]: 97 % of control
T/C [16]: 92 % of control

O=C(NCCCCCCNC(=O)NS(=O)(=O)c1ccccc1)NS(=O)(=O)c1ccccc1
T/C (dose: 50.0 mg/kg/injection, schedule: Q01DX001 (ip), vehicle: carboxymethylcellulose (CMC)): 119 % of control
T/C [17]: 102 % of control
T/C [18]: 107 % of control
T/C [19]: 105 % of control

CCCC(NC(=O)C(C)NC(=O)OCc1ccccc1)C(=O)OC (stereo unspecified)
T/C (dose: 100.0 mg/kg/injection, schedule: Q04DX003 (ip), vehicle: saline with Tween-80): 93 % of control
T/C (dose: 200.0 mg/kg/injection, schedule: Q04DX003 (ip), vehicle: saline with Tween-80): 93 % of control
T/C (dose: 400.0 mg/kg/injection, schedule: Q04DX003 (ip), vehicle: saline with Tween-80): 86 % of control

O=C(COc1ccc(Cl)cc1C(=O)O)Nc1cccc(NC(=O)Nc2cc(S(=O)(=O)F)ccc2Cl)c1
T/C [4]: 94 % of control
T/C [13]: 88 % of control
T/C [15]: 91 % of control

Reference: PubChem BioAssay AID248 (DTP/NCI, 2004)
